# Source: PubChem BioAssay AID651703 (Broad Institute, 2012)
# Biological target: Transforming acidic coiled-coil-containing protein 3 (Homo sapiens) (UniProt Q9Y6A5)
# Experiment: inhibition of ARNT PAS-B/TACC3 complex formation – biochemical, AlphaScreen, cherry-picked samples, confirmation (AID 651703);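 also: TACC3 partner is the GST-tagged E629A mutant dimer; hits lower the signal meaning they disrupt ARNT binding to TACC3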
# Settings: AlphaScreen His-ARNT PAS-B / GST-TACC3 binding, luminescence
row,Compound,AC50
1,CC(NC(=O)c1ccco1)C(=O)Nc1nc(-c2ccccn2)cs1 (stereo unspecified),4.52 µM
2,OCC1CCN(Cc2ccc(O)c3ncccc23)CC1,< 0.5 µM
3,CC(NC1=CC(=O)c2cccnc2C1=O)C(O)c1ccccc1 (stereo unspecified),15.5 µM
4,CC(=O)OC[C@H]1O[C@@H](Sc2cccc3cccnc23)[C@H](OC(C)=O)[C@@H](OC(C)=O)[C@H]1OC(C)=O,11.5 µM
5,Oc1c(CN2CCOCC2)cc(COCc2ccccc2)c2cccnc12,0.614 µM
6,O=C(CSc1nnc(-c2ccccn2)o1)Nc1ccccc1F,13 µM
7,CCOC(=O)c1c(C)[nH]c(N=Nc2cccc(C)c2)c1C,17.8 µM
8,C/C(=N\NC(=O)C(C)Oc1ccc([N+](=O)[O-])cc1)c1ccccn1 (stereo unspecified),4.39 µM
9,CCOC(=O)CSc1cccc2cccnc12,4.59 µM
10,COc1cccc(/C=N/NC(=O)c2ccc3nc[nH]c3c2)c1O,23.3 µM
11,CN(Cc1ccccc1)C(=O)c1[nH]cnc1C(=O)Nc1nccs1,22.5 µM
12,CC(=O)[C@H]1[C@@H]2C(=O)N(c3cccc(Cl)c3)C(=O)[C@@H]2[C@H]2c3ccccc3C=CN21,6.22 µM
13,O=S(=O)(N[C@@H]1CC[C@@H](CCn2cc(-c3ccccn3)nn2)O[C@@H]1CO)c1cccc(F)c1,13.4 µM
14,O=C(N/N=C/c1cc([N+](=O)[O-])ccc1O)c1ccncc1,1.01 µM
15,Cc1ccc(CNc2nc(-c3ccccn3)nnc2-c2ccccc2)cc1,0.736 µM
16,Brc1ccc(OCc2nc(-c3ccccn3)n[nH]2)cc1,3.6 µM
17,O=C(N/N=C/c1ccccc1O)C1SCCCS1,22.6 µM
18,N[C@H]1CC[C@H](CCn2cc(-c3ccccn3)nn2)O[C@@H]1CO,1.03 µM
19,c1ccc(CSc2ccc(-c3ccccn3)nn2)nc1,0.895 µM

row,Compound,AC50
1,Nc1nc(-c2ccccn2)nc(N)c1Cc1ccc(Cl)cc1Cl,2.6 µM
2,CN(C)S(=O)(=O)c1cccc(NC(=O)CSc2cccc3cccnc23)c1,5.76 µM
3,N/C(=N\OS(=O)(=O)c1ccc(Cl)cc1)c1ccccn1,22.5 µM
4,Cc1cc([N+](=O)[O-])cc(/C=N\NC(=O)C2COc3ccccc3O2)c1O (stereo unspecified),36.3 µM
5,O=C(N[C@H]1CC[C@H](CCn2cc(-c3ccccn3)nn2)O[C@@H]1CO)c1ccncc1,14.8 µM
6,O=C(N[C@@H]1CC[C@@H](CCn2cc(-c3ccccn3)nn2)O[C@H]1CO)c1cccnc1,11.8 µM
7,O=C(CSc1n[nH]c(-c2ccccn2)n1)Nc1ccc(F)cc1,1.09 µM
8,Cc1ccc(NC(=O)CSc2n[nH]c(-c3ccccn3)n2)cc1,2.26 µM
9,O=C(Nc1nnc(-c2ccc(F)cc2)o1)c1ccco1,37 µM
10,COc1cccc(/C=N/NC(=O)CNC(=O)c2ccncc2)c1O,64.8 µM
11,O=C(CSc1ccc(-c2ccccn2)nn1)NC1CCCC1,2.64 µM
12,C[C@@H]1CN([C@H](C)CO)C(=O)Cc2cc(N(C)C)ccc2O[C@H]1CN(C)Cc1ccc(Oc2ccccc2)cc1,27.5 µM
13,COc1ccc(OC)c(NC(=O)CSc2ccc3nnc(-c4ccccn4)n3n2)c1,34.3 µM
14,CC(C)Nc1nc(NC(C)C)nc(C(=O)OCCO)n1,41.8 µM
15,O=C(N[C@@H]1CC[C@H](CCn2cc(-c3ccccn3)nn2)O[C@H]1CO)c1ccc(F)cc1,14.3 µM
16,CN1CCN(C(c2ccccn2)c2cc(Cl)c3cccnc3c2O)CC1 (stereo unspecified),3.98 µM
17,C[C@@H]1CN([C@H](C)CO)C(=O)c2cc(NC(=O)Nc3ccc(C(F)(F)F)cc3)ccc2O[C@@H](C)CCCCO[C@H]1CN(C)Cc1ccc2c(c1)OCO2,64.9 µM
18,COC(=O)c1ccc(NC(=O)CSc2ccc(-c3ccccn3)nn2)cc1,2.57 µM
19,CCCN(CCC)c1nc(-c2ccccn2)nc2ccccc12,15.5 µM

row,Compound,AC50
1,Oc1ccccc1C(Nc1nccs1)c1ccc2cccnc2c1O (stereo unspecified),4.85 µM
2,O=C(CCS(=O)(=O)c1ccccc1)Nc1nc(-c2ccccn2)cs1,11.2 µM
3,O=C(CNCc1ccccn1)Nc1cc(C(F)(F)F)ccc1N1CCOCC1,17.4 µM
4,Cn1cccc1C(=O)Nc1nc(-c2ccccn2)cs1,5.3 µM
5,Cc1cc(C)c2nc(C)cc(N/N=C/c3ccc(O)cc3)c2c1,37.3 µM
6,Cc1ccccc1CS(=O)(=O)Cc1ccc(C(=O)NCc2ccccn2)o1,31.6 µM
7,c1ccc(-c2nnc(-c3ccccn3)nc2NCc2ccccn2)cc1,< 0.5 µM
8,COc1cc(CNCc2ccccn2)ccc1OCC(=O)NC(C)(C)C,26.4 µM
9,COc1cc2c(c(OC)c1OC)-c1ccc(O)c(=O)cc1[C@@H](NC(C)=O)CC2,40.8 µM
10,O=C(N[C@@H]1CC[C@@H](CCn2cc(-c3ccccn3)nn2)O[C@H]1CO)c1ccncc1,16.7 µM
11,C[C@@H]1CN([C@H](C)CO)S(=O)(=O)c2ccc(C3=CCCC3)cc2O[C@H]1CN(C)Cc1ccccn1,70 µM
12,O=C(N[C@@H]1CC[C@@H](CCn2cc(-c3ccccn3)nn2)O[C@@H]1CO)c1cccnc1,13.1 µM
13,CCOc1cccc(/C=N/NC(=O)c2cc(-c3cccn3C)n[nH]2)c1O,17.1 µM
14,O=C(CSc1n[nH]c(-c2ccccn2)n1)Nc1ccc(Cl)cc1,2.08 µM
15,Cc1ccc(-n2c(SCC(N)=O)nnc2-c2ccccn2)cc1,34.7 µM
16,COc1ccc(NC(=O)CSc2c(C)nn(-c3nnc(C)c(=O)[nH]3)c2C)cc1,25.2 µM
17,Cc1ccnc2nc(C(=O)Nc3nc(-c4ccccn4)cs3)nn12,2.53 µM
18,COC(=O)c1ccccc1-c1ccc(C(c2c(C)[nH][nH]c2=O)c2c(C)[nH][nH]c2=O)o1,15.7 µM
